This note sets out measurements from ChEMBL document CHEMBL5107956, “Natural products from mangrove sediments-derived microbes: Structural diversity, bioactivities, biosynthesis, and total synthesis” (Eur J Med Chem, 2022).

Assay [1] is described as follows: Antioxidant activity assessed as DPPH radical scavenging activity incubated for 30 mins under dark condition. It counts as functional.
Another assay deals with HepG2. Put plainly: Cytotoxicity against human HepG2 cells assessed as cell growth inhibition by MTT assay. It counts as functional, cell-based.
The next assay has as its system HEp-2. Put plainly: Cytotoxicity against human HEp-2 cells assessed as cell growth inhibition by MTT assay. Format: functional, cell-based.
Another assay deals with JeKo-1. Nature of the assay: Cytotoxicity against human JeKo-1 cells assessed as cell growth inhibition by MTT assay. Format: functional, cell-based.
Assay [2] relates to Trypanosoma brucei brucei. Nature of the assay: Antitrypanosomal activity against Trypanosoma brucei brucei GUTat3.1 assessed as parasite growth inhibition measured after 24 hrs by alamar blue staining based analysis. It counts as functional, organism-based. The following applies: GUTat3.1, 24 h.
In the next assay the test system is Leishmania major. Nature of the assay: Antileishmanial activity against Leishmania major NR48815 promastigotes assessed as parasite growth inhibition incubated for 24 hrs by alamar blue staining based analysis. Format: functional, organism-based. The settings on record: NR48815, 24 h.
The subject of another assay is Leishmania donovani. Put plainly: Antileishmanial activity against Leishmania donovani D10 promastigotes assessed as parasite growth inhibition incubated for 24 hrs by alamar blue staining based analysis. It counts as functional, organism-based. The settings on record: D10, 24 h.
For another assay, the system named is Plasmodium falciparum. Put plainly: Antiplasmodial activity against Plasmodium falciparum 3D7 infected in human erythrocyte assessed as intraerythrocytic growth inhibition measured after 24 hrs by alamar blue staining based analysis. It counts as functional, organism-based. The settings on record: 3D7, Erythrocyte.
Assay [3] can be described thus: Antioxidant activity assessed as free radical scavenging activity by DPPH assay. It counts as functional.
Assay [4] has as its system Pseudopestalotiopsis theae. Put plainly: Antifungal activity Pestalotiopsis theae assessed as fungal growth inhibition per disc measured after 7 days by paper disc dilution method. It counts as functional, organism-based.
The next assay deals with Rhizoctonia solani. Put plainly: Antifungal activity against Rhizoctonia solani assessed as inhibition of fungal growth at 10 ug/ml relative to control. Format: functional.
In a further assay the test system is HepG2 2.2.15. Nature of the assay: Antiproliferative activity against human HepG2.2.15 cells assessed as cell growth inhibition by MTT assay. It counts as functional, cell-based.
A further assay relates to Vibrio harveyi. Put plainly: Antibacterial activity against Vibrio harveyi assessed as cell growth inhibition. Format: functional.
In a further assay the test system is Vibrio anguillarum. Put plainly: Antibacterial activity against Vibrio anguillarum assessed as cell growth inhibition. Format: functional.
The next assay concerns Aeromonas hydrophila. Put plainly: Antibacterial activity against Aeromonas hydrophila assessed as cell growth inhibition. It counts as functional.
Another assay relates to Staphylococcus aureus. Nature of the assay: Antibacterial activity against Staphylococcus aureus ATCC 25923 assessed as bacterial growth inhibition. Format: functional, organism-based.
Assay [5] deals with Prostaglandin G/H synthase 2 (Homo sapiens) (UniProt P35354). Put plainly: Inhibition of COX2 (unknown origin) at 20 nM relative to control.
The next assay has as its system Vibrio splendidus. Nature of the assay: Antibacterial activity against Vibrio splendidus as bacterial growth inhibition. It counts as functional, organism-based.

≈ marks a conversion by molar mass, not a printed value.

Sequence of Prostaglandin G/H synthase 2 (Homo sapiens) (P35354 whole entry, looked up): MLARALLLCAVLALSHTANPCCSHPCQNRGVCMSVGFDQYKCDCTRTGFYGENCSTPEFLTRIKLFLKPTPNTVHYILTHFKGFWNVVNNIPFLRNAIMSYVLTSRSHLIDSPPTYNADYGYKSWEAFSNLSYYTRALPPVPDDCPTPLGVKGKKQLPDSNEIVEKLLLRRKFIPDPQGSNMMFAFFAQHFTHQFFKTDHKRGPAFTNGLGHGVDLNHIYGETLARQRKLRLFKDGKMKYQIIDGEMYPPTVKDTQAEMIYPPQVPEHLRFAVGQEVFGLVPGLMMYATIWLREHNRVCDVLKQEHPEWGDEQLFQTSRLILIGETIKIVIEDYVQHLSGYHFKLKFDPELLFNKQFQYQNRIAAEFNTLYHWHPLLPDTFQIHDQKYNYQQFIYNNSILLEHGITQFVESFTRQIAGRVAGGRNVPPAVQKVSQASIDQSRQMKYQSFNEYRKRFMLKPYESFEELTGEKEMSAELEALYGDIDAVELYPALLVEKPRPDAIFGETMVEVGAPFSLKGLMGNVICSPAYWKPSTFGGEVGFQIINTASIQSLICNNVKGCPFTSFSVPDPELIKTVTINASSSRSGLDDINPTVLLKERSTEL

Turning to `COc1c(O)c2c(c(O)c1CO)C(=O)OCC2`, in [1], the IC50 is 25.7 µM.
In the case of `COC(=O)c1cc(O)cc2oc3cc(C)c(O)cc3c(=O)c12`, the IC50 with HepG2 was determined as 9 µg/mL (≈ 30 µM); in the assay with HEp-2 it was 8 µg/mL (≈ 26.6 µM).
With `CC1=CCC[C@@]2(C)C=C3OC(=O)C(CO)=C3C[C@H]12`, in the assay on JeKo-1, the IC50 was 8.4 µM.
For `Cc1c(C)[n+](CCC(C)C)c(-c2n(CCc3ccccc3)c(C)c(C)[n+]2CCC(C)C)n1CCc1ccccc1`, the IC50 stood at 0.78 µM in [2], 7.02 µM in the assay with Leishmania major, 0.75 µM in the assay with Leishmania donovani and 9.08 µM in the assay with Plasmodium falciparum.
Turning to `COc1cc(O)cc(C2OC(=O)c3c(O)cc(C)c(O)c32)c1O` (stereo not drawn), in assay [3], the IC50 stood at 1.23 µg/mL (≈ 3.86 µM).
With `COC(=O)/C=C/C1=CC(=O)CC1O` (stereo not drawn), the IC50 in assay [4] came out at 125 µg.
As to `Cc1oc2cc3cc(O)cc(O)c3c(O)c2c(=O)c1C`, the inhibition at 10 µg/mL in the assay with Rhizoctonia solani came to 50.2%.
As to `C[C@@H](O)Cc1cc(O)c2c(c1)C(=O)c1c(O)c(O)cc(O)c1C2=O`, in the assay on HepG2 2.2.15, the IC50 came to 4.63 µM.
Turning to `C[C@H](O)/C=C1/C(=O)O[C@H]([C@@H](C)O)[C@@H]1O`, the MIC with Vibrio harveyi, in the assay with Vibrio anguillarum and with Aeromonas hydrophila was 8 µg/mL (≈ 39.6 µM) throughout.
Regarding `CC(C)=CCc1cc(C[C@@]2(C(=O)O)OC(=O)C(OC(C)(C)[C@@H](O)Cc3cc(C[C@@]4(C(=O)O)OC(=O)C(O)=C4c4ccc(O)cc4)ccc3O)=C2c2ccc(O)cc2)ccc1O`, the figures for the IC50 in the assay with Staphylococcus aureus and in the assay with Vibrio splendidus were 1.3 µM and 3.7 µM, respectively. In addition, the inhibition in assay [5] stood at 76.5%.
